According to patent US20180110824A1, “Macrocyclic Modulators of the Ghrelin Receptor” (Ocera Therapeutics, Inc., priority 2016, published 2018):
pEC50, pKi: −log10 of the molar value. Read-outs that look alike come from different tables or passages of the source.

How the values were obtained:
[1] = target: T1, human ghrelin receptor (hGHS-R1a) (Homo sapiens, UniProt Q92847); assay: Aequorin functional assay (ghrelin receptor), CHO-K1 cells co-expressing Gα16 and aequorin; type: cell-based; details: Table 4, functional (agonist) activity, TFA salts unless otherwise noted; for pEC50: read-out: EC50
T1 construct: host or cells: CHO-K1 co-expressing Gα16 and mitochondrially targeted aequorin
T1 sequence (Q92847 whole entry): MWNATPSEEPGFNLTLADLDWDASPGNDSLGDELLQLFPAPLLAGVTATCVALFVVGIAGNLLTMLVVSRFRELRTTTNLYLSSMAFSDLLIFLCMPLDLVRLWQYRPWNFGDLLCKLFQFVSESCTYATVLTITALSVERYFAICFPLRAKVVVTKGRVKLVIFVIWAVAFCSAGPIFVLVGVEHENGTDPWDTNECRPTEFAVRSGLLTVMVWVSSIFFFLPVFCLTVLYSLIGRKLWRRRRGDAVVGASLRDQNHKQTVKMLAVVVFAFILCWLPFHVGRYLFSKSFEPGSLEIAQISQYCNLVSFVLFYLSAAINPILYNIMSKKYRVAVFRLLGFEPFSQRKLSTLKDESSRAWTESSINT
Protocol: This cell line is typically constructed by transfection of the human ghrelin receptor into CHO-K1 cells co-expressing Gα16 and the mitochondrially targeted Aequorin (Ref #ES-WT-A5). • 1. […] Assay buffer: DMEM (Dulbecco's Modified Eagles Medium) containing 0.1% BSA (bovine serum albumin; pH 7.0). • 3. Coelenterazine (Molecular Probes, Leiden, The Netherlands). • Final test concentrations (N=8) for compounds of the invention: 10, 1, 0.3, 0.1, 0.03, 0.01, 0.003, 0.001 μM.
Stock solutions of compounds (10 mM in 100% DMSO) were provided frozen on dry ice and stored at −20° C. prior to use. […] Assay plates were then prepared by appropriate dilution in DMEM medium containing 0.1% BSA. Under these conditions, the maximal final DMSO concentration in the assay was <0.6%.
AequoScreen™ cells were collected from culture plates with Ca^2+ and Mg^2+-free phosphate buffered saline (PBS) supplemented with 5 mM EDTA, pelleted for 2 min at 1000×g re-suspended in DMEM—Ham's F12 containing 0.1% BSA at a density of 5×10^6 cells/mL, and incubated O/N at rt in the presence of 5 μM coelenterazine. After loading, cells were diluted with assay buffer to a concentration of 5×10^5 cells/mL.
For agonist testing, 50 μL of the cell suspension was mixed with 50 μL of the appropriate concentration of test compound or ghrelin (reference agonist) in 96-well plates (duplicate samples). Ghrelin (reference agonist) was tested at several concentrations concurrently with the test compounds in order to validate the experiment. The emission of light resulting from receptor activation in response to ghrelin or test compounds was recorded using the Hamamatsu FDSS 6000 reader (Hamamatsu Photonics K.K., Japan).
Results were expressed as Relative Light Units (RLU). […] EC50, Hill slope and % Emax values are reported.
• 1. Assay performed on CHO-K1 cells expressing the transfected, cloned human ghrelin receptor (hGHS-R1a) and Gα16. • 2. Suspended cells incubated O/N with coelenterazine. • 3. Stimulation of hGHS-R1a activates Gα16, causing […] Ca2+ release which ultimately leads to the oxidation of coelenterazine and the emission of a quantitative luminescent signal. • 4. Ghrelin was used as the positive control. • 5.

[2] = target: T2, human growth hormone secretagogue receptor (hGHS-R1a) (Homo sapiens, UniProt Q92847); assay: Competitive radioligand binding assay (ghrelin receptor), [125I]-ghrelin displacement on GHS-R/HEK 293 membranes; details: for pKi: read-out: Ki; for Ki: Ki (nM)
T2 construct: purchased PerkinElmer BioSignal #RBHGHSM; host or cells: HEK-293, stably transfected
T2 sequence (Q92847 whole entry): as above

[3] = target: motilin receptor (Homo sapiens, UniProt O43193); assay: Selectivity for the ghrelin receptor versus the motilin receptor; type: binding
Sequence of motilin receptor (O43193 whole entry, species assumed): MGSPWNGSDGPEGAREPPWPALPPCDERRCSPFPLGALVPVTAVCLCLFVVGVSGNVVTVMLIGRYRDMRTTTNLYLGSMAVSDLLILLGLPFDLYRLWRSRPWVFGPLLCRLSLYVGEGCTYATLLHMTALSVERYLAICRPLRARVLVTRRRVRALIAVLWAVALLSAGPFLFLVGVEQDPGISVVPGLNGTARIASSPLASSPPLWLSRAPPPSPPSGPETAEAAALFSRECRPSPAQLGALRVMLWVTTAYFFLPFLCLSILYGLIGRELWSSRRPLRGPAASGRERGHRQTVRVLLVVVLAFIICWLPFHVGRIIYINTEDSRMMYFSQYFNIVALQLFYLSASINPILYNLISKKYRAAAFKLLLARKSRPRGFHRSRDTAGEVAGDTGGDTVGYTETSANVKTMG
Description: The level of agonist activity and selectivity for representative compounds of the invention are shown below in Table 4.

[4] = system: morphine-delayed gastric emptying and gastrointestinal transit in rats; assay: Opioid (morphine)-delayed gastric emptying and gastrointestinal transit in rats; type: in vivo, rat; details: 3 mg/kg, s.c., rats, FIG. 16A
Description: Opioid analgesics, such as morphine, are well known to delay gastrointestinal transit which is an important side-effect for this class of drugs. The clinical term for this syndrome is opioid bowel dysfunction (OBD). Importantly, patients recovering from abdominal surgery experience post-operative ileus that is further exacerbated by concomitant opioid therapy for post-surgical pain.
• 1. Rats (male, Sprague-Dawley, 250-300 g) are implanted with jugular vein catheters to accommodate dosing of test articles. • 2. Overnight-fasted rats are administered morphine (3 mg/kg s.c.). • 3. […] Radioactivity (^99mTc) in each tissue isolate is measured as a means of measuring the transit of the meal.

[5] = system: gastric emptying in fasted rats; assay: Gastric emptying in fasted rats (phenol red methylcellulose meal); type: in vivo, rat
Protocol: To examine the effects of compounds of the invention in a model for gastroparesis, compounds were evaluated for possible effects on gastric emptying in fasted rats.
GHRP-6 and test samples were dissolved in vehicle of 9% HPBCD/0.9% NaCl. Immediately following oral administration of methylcellulose (2%) containing phenol red (0.05%) (2 mL/rat), test substances or vehicle (9% HPBCD/0.9% NaCl) were each administered intravenously (i.v.) at a dosing volume of 5 mL/kg.
Male Wistar rats were provided by LASCO (A Charles River Licensee Corporation, Taiwan). Space allocation for 6 animals was 45×23×15 cm. Animals were housed in APEC® cages and maintained in a controlled temperature (22° C.-24° C.) and humidity (60% -80%) environment with 12 h light, 12 h dark cycles for at least one week in the laboratory prior to being used. Free access to standard lab chow for rats (Lab Diet, Rodent Diet, PMI Nutrition International, USA) and tap water was granted. All aspects of this work including housing, experimentation and disposal of animals were performed in general accordance with the Guide for the Care and Use of Laboratory Animals (National Academy Press, Washington, D.C., 1996).
Test substances were each administered intravenously to a group of 5 O/N-fasted Wistar derived male rats weighing 200±20 g immediately after methylcellulose (2%) containing phenol red (0.05%) was administered orally at 2 mL/animal. The animals were then sacrificed 15 minutes later. The stomach was immediately removed, homogenized in 0.1 N NaOH (5 mL) and centrifuged. Following protein precipitation by 20% trichloroacetic acid (0.5 mL)and re-alkalization of the supernatant with 0.1 N NaOH, total phenol red remaining in the stomach was determined by a colorimetric method at 560 nm. A 30 percent or more (≥30%) increase in gastric emptying, detected as the decrease in phenol red concentration in the stomach relative to the vehicle control group, is considered significant.
• 1. Overnight-fasted rats (male Wistar, ˜200 g, N=5/group) were given a meal of methylcellulose (2%) by intragastric gavage. The meal was labeled with phenol red (0.05%). • 2. […] Animals were sacrificed 15 minutes later; the stomach was immediately removed and homogenized in 0.1 N NaOH and centrifuged. • 4. Total phenol red remaining in the stomach was quantified by a colorimetric method at 560 nm. • 5. A >30% increase in gastric emptying, detected based on the phenol red concentration in comparison to the control group, is considered significant.

[6] = Pharmacokinetic analysis in rats (i.v., s.c., p.o.); type: in vivo; details: male, Sprague-Dawley, plasma, iv, 2 mg/kg, rat
Protocol: • 1. Intravenous (i.v.): 2 mg/kg • 2. Subcutaneous (s.c): 2 mg/kg • 3. Oral (p.o.): 8 mg/kg
Whole blood samples were chilled and immediately processed by centrifugation to obtain plasma.
Plasma samples were stored frozen (−70° C.) until analysis.

[7] = Table 3B, binding activity at the human ghrelin receptor
[8] = Table 4, TFA salts unless otherwise noted
[9] = Binding activity at the human ghrelin receptor, [125I]-ghrelin displacement

| SMILES | pEC50 [1] | pKi [2, 8] | Selectivity [3] | pKi [2, 9] | other results |
| --- | --- | --- | --- | --- | --- |
| C[C@@H]1C(=O)N[C@H](Cc2ccc(F)cc2)C(=O)NCCCc2ncccc2OCCN[C@@H](C2CC2)C(=O)N1C [306a] | 7.00 to 9.00 | 7.00 to 8.00 | 714/1 | – | pKi [2, 7]: 7.00 to 8.00 |
| CCC(C)[C@@H]1NCCOc2ccccc2/C=C/CNC(=O)[C@H](Cc2cccc(Cl)c2)NC(=O)C2(CCCC2)NC1=O (some centres unmarked) [345a] | 7.00 to 9.00 | 7.00 to 8.00 | >159/1 | – | pKi [2, 7]: 6.00 to 7.00 |
| CCCC[C@@H]1NCCOc2ccccc2CCCNC(=O)[C@@H](Cc2ccccc2)NC(=O)CN(C)C1=O [Compound 1] | 6.00 to 7.00 | 7.00 to 8.00 | 142/1 | 7.00 to 8.00 | – |
| CCC[C@@H]1NCCOc2ccccc2CCCNC(=O)[C@@H](Cc2c[nH]c3ccccc23)NC(=O)CN(C)C1=O [Compound 6] | 7.00 to 9.00 | 6.00 to 7.00 | 71/1 | 6.00 to 7.00 | – |
| CC(C)C[C@@H]1NCCOc2ccccc2/C=C/CNC(=O)[C@H](Cc2ccccc2)NC(=O)C2(CCCC2)NC1=O [Compound 8] | 7.00 to 9.00 | 7.00 to 8.00 | 200/1 | 7.00 to 8.00 | – |
| CC(C)[C@@H]1NCCOc2ccccc2CCCNC(=O)[C@H](Cc2ccccc2)NC(=O)C2(CCCC2)NC1=O [Compound 9] | 6.00 to 7.00 | 6.00 to 7.00 | 117/1 | 6.00 to 7.00 | – |
| CCC[C@@H]1NCCOc2ccccc2CCCNC(=O)[C@@H](Cc2ccccc2)NC(=O)CN(C)C1=O [Compound 10] | 7.00 to 9.00 | 7.00 to 8.00 | 304/1 | 7.00 to 8.00 | – |
| CN1CC[C@]23c4c5ccc(O)c4O[C@H]2[C@@H](O)C=C[C@H]3[C@H]1C5 [Morphine, morphine, reference compound] | – | – | – | – | gastric emptying and intestinal transit [4]: significantly delayed gastric emptying and intestinal transit |
| CCC[C@@H]1NCCOc2ccccc2CCCNC(=O)[C@@H](Cc2ccc(O)cc2)NC(=O)CN(C)C1=O [compound 7] | 7.00 to 9.00 | 6.00 to 7.00 | >100/1 | 6.00 to 7.00 | – |
| C[C@@H]1C(=O)N[C@H](Cc2ccccc2)C(=O)NCCCc2ccccc2OCCN[C@@H](C2CC2)C(=O)N1C [compound 17] | 7.00 to 9.00 | 8.00 to 10.00 | 2500/1 | 8.00 to 10.00 | – |
| O=C1NC/C=C/c2ccccc2OCCNC2(CCCC2)C(=O)NC2(CCCC2)C(=O)N[C@H]1Cc1ccccc1 [compound 18] | 7.00 to 9.00 | 7.00 to 8.00 | 222/1 | 7.00 to 8.00 | pKi ([2]; Table 3C): 7.00 to 8.00 |
| CC(C)C[C@@H]1NCCOc2ccccc2/C=C/CNC(=O)[C@H](Cc2cccc(Cl)c2)NC(=O)C2(CCCC2)NC1=O [compound 21] | 7.00 to 9.00 | 8.00 to 10.00 | 1078/1 | 8.00 to 10.00 | – |
| CCC(C)[C@@H]1NCCOc2ccccc2CCCNC(=O)[C@@H](Cc2ccc(Cl)cc2)NC(=O)[C@@H](C)N(C)C1=O (some centres unmarked) [compound 25] | – | – | – | – | gastric emptying ([5]; 30 μg/kg, fasted rats): demonstrated gastric emptying; increase in gastric emptying relative to the vehicle control group ([5]; 100 μg/kg i.v., fasted rats): 39%; EC50 ([1]; EC50 (nM)): 1 to 100 nM; Ki [2, 9]: 0.1 to 10 nM; Ki [2, 8]: 0.1 to 10 nM; clearance [6]: 67 mL/min/kg; half-life ([6]; read-out: Elimination (t1/2, min)): 31 min |
| CCC(C)C1NCCOc2ccccc2CCCNC(=O)C(Cc2ccc(F)cc2)NC(=O)C(C)N(C)C1=O (centres unmarked) [compound 26] | 7.00 to 9.00 | 8.00 to 10.00 | >7700/1 | 8.00 to 10.00 | – |
| CCC(C)[C@@H]1NCCOc2ccccc2CCCNC(=O)[C@@H](Cc2ccc(OC)cc2)NC(=O)[C@@H](C)N(C)C1=O (some centres unmarked) [compound 27] | 7.00 to 9.00 | 8.00 to 10.00 | >7100/1 | 8.00 to 10.00 | – |
| C[C@@H]1C(=O)N[C@H](Cc2ccc(Cl)cc2Cl)C(=O)NCCCc2ccccc2OCCN[C@@H](C2CC2)C(=O)N1C [compound 314] | 7.00 to 9.00 | 8.00 to 10.00 | >5500/1 | – | pKi [2, 7]: 8.00 to 10.00 |
| C[C@H]1NC(=O)C2(CCCC2)NCCOc2ccccc2/C=C/CNC(=O)[C@H](Cc2cccc(Cl)c2)NC1=O [compound 351] | 7.00 to 9.00 | 7.00 to 8.00 | 450/1 | – | pKi ([2]; Table 3C): 7.00 to 8.00 |
| C[C@@H]1C(=O)N[C@H](Cc2ccc(F)cc2)C(=O)NCCCc2ccc(F)cc2OCCN[C@@H](C2CC2)C(=O)N1C [compound 372] | 7.00 to 9.00 | 8.00 to 10.00 | 2500/1 | – | pKi [2, 7]: 8.00 to 10.00 |
| C[C@@H]1C(=O)N[C@H](Cc2ccc(F)cc2)C(=O)NCCCc2cc(NS(C)(=O)=O)ccc2OCCN[C@@H](C2CC2)C(=O)N1C [compound 374] | 7.00 to 9.00 | 7.00 to 8.00 | 250/1 | – | pKi [2, 7]: 7.00 to 8.00 |
| CC[C@H](C)[C@@H]1NCCOc2ccc(F)cc2CCCNC(=O)[C@H](Cc2cccc(Cl)c2)NC(=O)C2(CCCC2)NC1=O [compound 382] | 6.00 to 7.00 | 7.00 to 8.00 | 74/1 | – | pKi [2, 7]: 7.00 to 8.00 |
| CCN(CC)CCNC(=O)c1cc(Cl)c(N)cc1OC [metoclopramide, Metoclopramide, reference compound] | – | – | – | – | increase in gastric emptying relative to the vehicle control group ([5]; 10 mg/kg i.v., fasted rats): 41%; gastric emptying of a meal in naïve rat ([5]; i.v., FIGS. 14A and 14B): demonstrated significant gastric emptying |
